Values after ≈ are worked out from the molar mass of the structure shown.
Columns and labels:
Type in all cases: functional
[1] = system: Cryptococcus neoformans; assay: Antifungal activity against Cryptococcus neoformans KCCM 50564 after 1 day; conditions: KCCM 50564, 24 h
[2] = system: Candida tropicalis; assay: Antifungal activity against Candida tropicalis KCCM 50662 after 1 day; conditions: KCCM 50662, 24 h
[3] = system: Pichia kudriavzevii; assay: Antifungal activity against Candida krusei KCCM 11655 after 1 day; conditions: KCCM 11655, 24 h
[4] = system: Candida albicans; assay: Antifungal activity against Candida albicans KCCM 50235 after 1 day; conditions: KCCM 50235, 24 h
[5] = system: Aspergillus niger; assay: Antifungal activity against Aspergillus niger KCTC 1231 after 2 days; conditions: KCTC 1231, 48 h

Row | SMILES | MIC [1] | MIC [2] | MIC [3] | MIC [4] | MIC [5]
1 | N#Cc1c2c(n(-c3ccccc3)c1N)C(=O)c1ccccc1C2=O | 100 µg/mL (≈ 319 µM) | 100 µg/mL (≈ 319 µM) | 3.2 µg/mL (≈ 10.2 µM) | 100 µg/mL (≈ 319 µM) | > 100 µg/mL
2 | Cn1c(N)c(C#N)c2c1C(=O)c1ccccc1C2=O | 12.5 µg/mL (≈ 49.8 µM) | 6.3 µg/mL (≈ 25.1 µM) | 12.5 µg/mL (≈ 49.8 µM) | 12.5 µg/mL (≈ 49.8 µM) | 25 µg/mL (≈ 99.5 µM)
3 | CCOC(=O)c1c2c(n(-c3ccccc3)c1N)C(=O)c1ncccc1C2=O | 50 µg/mL (≈ 138 µM) | 6.3 µg/mL (≈ 17.4 µM) | > 100 µg/mL | > 100 µg/mL | 50 µg/mL (≈ 138 µM)
4 | COC(=O)c1c2c(n(-c3ccccc3)c1N)C(=O)c1ncccc1C2=O | > 100 µg/mL | > 100 µg/mL | 50 µg/mL (≈ 144 µM) | > 100 µg/mL | 50 µg/mL (≈ 144 µM)
5 | CCOC(=O)c1c2c(n(-c3ccc(F)cc3)c1N)C(=O)c1ncccc1C2=O | 25 µg/mL (≈ 65.9 µM) | 6.3 µg/mL (≈ 16.6 µM) | > 100 µg/mL | > 100 µg/mL | 50 µg/mL (≈ 132 µM)
6 | Cc1ccc(-n2c(N)c(C#N)c3c2C(=O)c2ccccc2C3=O)cc1 | 100 µg/mL (≈ 305 µM) | > 100 µg/mL | 3.2 µg/mL (≈ 9.78 µM) | > 100 µg/mL | > 100 µg/mL
7 | CCOC(=O)c1c2c(n(-c3ccc(Br)cc3)c1N)C(=O)c1ncccc1C2=O | 25 µg/mL (≈ 56.8 µM) | 3.2 µg/mL (≈ 7.27 µM) | > 100 µg/mL | 50 µg/mL (≈ 114 µM) | 50 µg/mL (≈ 114 µM)
8 | CCOC(=O)c1c2c(n(-c3ccc(I)cc3)c1N)C(=O)c1ncccc1C2=O | 25 µg/mL (≈ 51.3 µM) | 3.2 µg/mL (≈ 6.57 µM) | 25 µg/mL (≈ 51.3 µM) | 25 µg/mL (≈ 51.3 µM) | 12.5 µg/mL (≈ 25.7 µM)
9 | CCOC(=O)c1c2c(n(-c3ccc(C)cc3)c1N)C(=O)c1ncccc1C2=O | 12.5 µg/mL (≈ 33.3 µM) | 3.2 µg/mL (≈ 8.52 µM) | 12.5 µg/mL (≈ 33.3 µM) | > 100 µg/mL | 25 µg/mL (≈ 66.6 µM)
10 | Nc1ccc(O)c2ncccc12 | 100 µg/mL (≈ 624 µM) | > 100 µg/mL | 100 µg/mL (≈ 624 µM) | > 100 µg/mL | > 100 µg/mL
11 | CCOC(=O)c1c2c(n(-c3ccc(C(F)(F)F)cc3)c1N)C(=O)c1ncccc1C2=O | 12.5 µg/mL (≈ 29.1 µM) | 0.8 µg/mL (≈ 1.86 µM) | 6.3 µg/mL (≈ 14.7 µM) | 6.3 µg/mL (≈ 14.7 µM) | 12.5 µg/mL (≈ 29.1 µM)
12 | CCOC(=O)c1c2c(n(-c3ccc(O)cc3)c1N)C(=O)c1ncccc1C2=O | 12.5 µg/mL (≈ 33.1 µM) | 0.6 µg/mL (≈ 1.59 µM) | 12.5 µg/mL (≈ 33.1 µM) | 3.2 µg/mL (≈ 8.48 µM) | 25 µg/mL (≈ 66.3 µM)
13 | Nc1nc(=O)[nH]cc1F [FLUCYTOSINE] | 12.5 µg/mL (≈ 96.8 µM) | 12.5 µg/mL (≈ 96.8 µM) | 6.3 µg/mL (≈ 48.8 µM) | 6.3 µg/mL (≈ 48.8 µM) | 50 µg/mL (≈ 387 µM)
14 | CCOC(=O)c1c2c(n(-c3ccc(OC)cc3)c1N)C(=O)c1ncccc1C2=O | 50 µg/mL (≈ 128 µM) | 12.5 µg/mL (≈ 31.9 µM) | > 100 µg/mL | > 100 µg/mL | 25 µg/mL (≈ 63.9 µM)
15 | COC(=O)c1c2c(n(-c3ccc(C)cc3)c1N)C(=O)c1ncccc1C2=O | 12.5 µg/mL (≈ 34.6 µM) | 100 µg/mL (≈ 277 µM) | 12.5 µg/mL (≈ 34.6 µM) | 100 µg/mL (≈ 277 µM) | > 100 µg/mL
16 | CCOC(=O)c1c2c(n(-c3ccc(Cl)cc3)c1N)C(=O)c1ncccc1C2=O | 50 µg/mL (≈ 126 µM) | 3.2 µg/mL (≈ 8.08 µM) | > 100 µg/mL | > 100 µg/mL | 6.3 µg/mL (≈ 15.9 µM)
17 | OC(Cn1cncn1)(Cn1cncn1)c1ccc(F)cc1F [FLUCONAZOLE] | 50 µg/mL (≈ 163 µM) | 6.3 µg/mL (≈ 20.6 µM) | 25 µg/mL (≈ 81.6 µM) | 12.5 µg/mL (≈ 40.8 µM) | 50 µg/mL (≈ 163 µM)
18 | CCn1c(N)c(C#N)c2c1C(=O)c1ccccc1C2=O | 12.5 µg/mL (≈ 47.1 µM) | 25 µg/mL (≈ 94.2 µM) | 12.5 µg/mL (≈ 47.1 µM) | 25 µg/mL (≈ 94.2 µM) | 25 µg/mL (≈ 94.2 µM)
19 | COC(=O)c1c2c(n(-c3ccc(OC)cc3)c1N)C(=O)c1ncccc1C2=O | > 100 µg/mL | > 100 µg/mL | 12.5 µg/mL (≈ 33.1 µM) | > 100 µg/mL | 50 µg/mL (≈ 133 µM)
20 | CCOC(=O)c1c2c(n(-c3ccc(F)c(F)c3)c1N)C(=O)c1ncccc1C2=O | 50 µg/mL (≈ 126 µM) | 50 µg/mL (≈ 126 µM) | 25 µg/mL (≈ 62.9 µM) | 1.6 µg/mL (≈ 4.03 µM) | 25 µg/mL (≈ 62.9 µM)
